Columns and labels:
Rab12-pSer106 = test: Western Blot, HEK293 cells co-expressing HA-Rab12 and LRRK2 variants; format: cell-based, human; details: 100 nM; HEK293 co-overexpressing HA-Rab12 and LRRK2 WT, G2019S or R1441C
Experimental: Plasmids encoding various LRRK2 and Rab GTPase protein variants were transiently expressed in HEK293 cells using Lipofectamine®2000 according to the manufacturer’s instructions (Thermo Fisher Scientific, US).
HEK293 cells were plated at a density of 1 × 10^6 cells/well in 6-well plates pre-coated for 1 hr at 37 °C with poly-L-lysin. Subsequent to the transient transfection HEK293 cells were harvested using 1 mL cold Phosphate Buffered Saline (PBS) buffer (Invitrogen, California, US) and subsequently centrifuged at 800 g for 2 minutes. Cell pellets were resuspended and solubilized in 100 µL lysis buffer (50 mM Tris hydrochloride, 1 mM magnesium chloride, 1% Triton, 0.1% sodium dodecyl sulfate (SDS), pH 8.0) on ice for 20 minutes and then centrifuged at 20,000 g for 30 minutes at 4 °C. The solubilized crude cell lysate was size mobility separated by SDS-polyacrylamide gel electrophoresis (SDS-PAGE). LRRK2 was separated on a 3–8% Tris-Acetate gel (NuPAGE® Tris-Acetate Mini Gels, Life Technologies, Paisley, UK) and Rab10 and Rab12 were separated using a NuPAGE® Novex 4–12% Bis-Tris Gel (Invitrogen, California, US). An amount of 10 µg total protein was loaded in each well. Proteins were transferred to immobilon-FL PVDF membranes (Millipore, Billerica, US).

RAB10 = test: Phosphoproteomic analysis, immune stimulated human PBMCs; format: cell-based; details: 100 nM, 24 hrs
Experimental: (§1) Freshly isolated PBMCs were plated at a density ranging from 7–20 × 10^6 cells in 10 cm petri dishes (Costar 3262) in RPMI-1640 media (Gibco 61870–010) supplemented with 10% non-heat inactivated FBS, 5 ml Antimycotic (Sigma cat:5965) with or without an immune stimulation cocktail consisting of 400 nM phorbol 12-myristate 13-acetate (PMA) and 100 ng/ml interferon-γ (INF-γ). After 48 hrs in culture the cultures were added a fifth of the volume media containing 5x the final concentration of the respective LRRK2 inhibitor with or without PMA and interferon-γ. […] Approximately, 400 µg of protein from each individual donor was needed in order to run the full PBMC stimulation and inhibition study with subsequent global proteome and phosphoproteome (PhosphoScout®) analyses. […]
(§2) Upon the respective treatments cells were washed with cold PBS, snap-frozen in liquid N2 and shipped to Evotec on dry-ice. […] Cell lysis was performed in ice-cold lysis buffer (8 M urea, 50 mM Tris pH 8.2, 10 mM sodium pyrophosphate, 5 mM EDTA, 5 mM EGTA, 10 mM sodium fluoride, 10 mM β-glycerophosphate, 10 mM sodium orthovanadate, phosphatase inhibitor cocktail 2 and 3 (Sigma, 1:100 (v/v)) and Complete protease inhibitor cocktail tablets (Roche). Cell extracts were sonicated on ice and the cell debris was removed by centrifugation before protein concentrations were determined (Bradford, BioRad). […]

RAB12 = test: as above; format: cell-based; details: 100 nM, 24 hrs
Experimental: as §1, §2

CASK = tested on: T1, CASK; test: KiNativ profiling in human PBMCs; format: binding; details: Lys1
T1 construct: purchased ActivX Technologies (KiNativ)

CK1a = tested on: T2, CK1a; test: KiNativ profiling in human PBMCs; format: binding; details: Lys2
T2 construct: purchased ActivX Technologies (KiNativ)

CLK3 = tested on: T3, CLK3; test: KiNativ profiling in human PBMCs; format: binding; details: ATP Loop
T3 construct: purchased ActivX Technologies (KiNativ)

MAP2K1 = tested on: T4, MAP2K1; test: KiNativ profiling in human PBMCs; format: binding; details: Lys2
T4 construct: purchased ActivX Technologies (KiNativ)

MPSK1 = tested on: T5, MPSK1; test: KiNativ profiling in human PBMCs; format: binding; details: Lys1
T5 construct: purchased ActivX Technologies (KiNativ)

MST4 = tested on: T6, MST4; test: KiNativ profiling in human PBMCs; format: binding; details: Lys1
T6 construct: purchased ActivX Technologies (KiNativ)

p70S6Kb = tested on: T7, p70S6Kb; test: KiNativ profiling in human PBMCs; format: binding; details: Lys2
T7 construct: purchased ActivX Technologies (KiNativ)

PCTAIRE2, PCTAIRE3 = test: KiNativ profiling in human PBMCs; format: binding; details: Lys1
PIP4K2B = tested on: T8, PIP4K2B; test: KiNativ profiling in human PBMCs; format: binding; details: ATP
T8 construct: purchased ActivX Technologies (KiNativ)

PKCd = tested on: T9, PKCd; test: KiNativ profiling in human PBMCs; format: binding; details: Lys2
T9 construct: purchased ActivX Technologies (KiNativ)

PKD1, PKD2 = test: KiNativ profiling in human PBMCs; format: binding; details: Lys2

Cc1cccc(-c2cc(Nc3ccn(C)n3)nc3[nH]cc(C#N)c23)c1 [Lu AF58786]
phosphorylation of Rab12 (pSer106) (Rab12-pSer106): statistically significant reduction
reduced level of phosphorylation, Thr73 on Rab10 (RAB10): approximately 2 fold
reduced level of phosphorylation, Ser106 on Rab12 (RAB12): approximately 2 fold

Cn1cc(-c2c[nH]c3ncnc(N4CCOCC4)c23)cc1C#N [PFE-360]
% Inhibition (CASK; 0.1µM): 4.6%
% Inhibition (CASK; 1µM): 8.6%
% Inhibition (CK1a; 0.1µM): -17.4%
% Inhibition (CK1a; 1µM): 4.6%
% Inhibition (CLK3; 0.1µM): 3.8%
% Inhibition (CLK3; 1µM): -6.8%
% Inhibition (MAP2K1; 0.1µM): -25.9%
% Inhibition (MAP2K1; 1µM): 6.5%
% Inhibition (MPSK1; 0.1µM): 5.5%
% Inhibition (MPSK1; 1µM): -27.6%
% Inhibition (MST4; 0.1µM): -26.3%
% Inhibition (MST4; 1µM): -30%
% Inhibition (p70S6Kb; 0.1µM): -6.9%
% Inhibition (p70S6Kb; 1µM): 10.8%
% Inhibition (PCTAIRE2, PCTAIRE3; 0.1µM): -34%
% Inhibition (PCTAIRE2, PCTAIRE3; 1µM): 11.6%
% Inhibition (PIP4K2B; 0.1µM): 6.9%
% Inhibition (PIP4K2B; 1µM): 22.6%
% Inhibition (PKCd; 0.1µM): 3.5%
% Inhibition (PKCd; 1µM): -0.6%
% Inhibition (PKD1, PKD2; 0.1µM): 13.1%
% Inhibition (PKD1, PKD2; 1µM): -5.9%
